Target: human TMEM16A (TMEM16Aabc variant) (Homo sapiens, UniProt Q5XXA6, DEL476-501, form not given)
Experiment: Automated whole-cell patch clamp (Qpatch) TMEM16A potentiator assay in FRT cells stably expressing human TMEM16A
Type: cell-based
Conditions: for % Potentiation @ 3.33 μM Avg: 3.33 μM solution of test compound, percentage increase of baseline TMEM16A current; for EC50: calculated EC50, Qpatch TMEM16A current at +70 mV
Method in brief: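 Potentiation was read as the rise in peak +70 mV current over baseline (%), from cumulative 5-min additions of compound. Recordings used whole-cell automated patch of FRT cells stably carrying human TMEM16Aabc, with pipette Ca2+ buffered to give ~20% maximal current. EC50 and efficacy came from concentration-response fits.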

Sequence of human TMEM16A (TMEM16Aabc variant) (Q5XXA6 with tags, fused parts or gaps DEL476-501): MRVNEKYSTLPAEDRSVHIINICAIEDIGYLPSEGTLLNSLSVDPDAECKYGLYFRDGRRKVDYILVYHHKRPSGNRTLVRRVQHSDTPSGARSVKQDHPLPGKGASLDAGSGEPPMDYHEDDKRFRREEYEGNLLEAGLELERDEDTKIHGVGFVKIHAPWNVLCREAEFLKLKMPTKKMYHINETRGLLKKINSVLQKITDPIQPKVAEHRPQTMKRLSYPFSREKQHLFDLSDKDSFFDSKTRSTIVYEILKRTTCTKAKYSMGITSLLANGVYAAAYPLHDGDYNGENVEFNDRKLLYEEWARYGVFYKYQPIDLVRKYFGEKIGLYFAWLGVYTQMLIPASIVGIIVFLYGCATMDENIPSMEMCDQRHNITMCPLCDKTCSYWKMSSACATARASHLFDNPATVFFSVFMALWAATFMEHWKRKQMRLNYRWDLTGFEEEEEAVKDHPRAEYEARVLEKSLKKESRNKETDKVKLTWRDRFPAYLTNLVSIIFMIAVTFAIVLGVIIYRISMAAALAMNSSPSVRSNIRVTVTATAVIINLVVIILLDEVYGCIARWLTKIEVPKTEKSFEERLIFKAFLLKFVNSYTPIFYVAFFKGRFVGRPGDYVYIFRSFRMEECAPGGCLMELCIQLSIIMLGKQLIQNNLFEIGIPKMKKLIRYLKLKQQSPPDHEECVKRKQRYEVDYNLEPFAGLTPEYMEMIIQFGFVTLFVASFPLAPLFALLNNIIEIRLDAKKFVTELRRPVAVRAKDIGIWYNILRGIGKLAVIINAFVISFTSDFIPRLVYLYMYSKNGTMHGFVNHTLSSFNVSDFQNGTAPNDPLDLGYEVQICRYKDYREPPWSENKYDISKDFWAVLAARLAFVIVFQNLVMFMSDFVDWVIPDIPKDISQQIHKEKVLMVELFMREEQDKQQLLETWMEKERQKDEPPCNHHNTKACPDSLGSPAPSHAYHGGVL

| SMILES | % Potentiation @ 3.33 μM Avg | EC50 |
| --- | --- | --- |
| CC(C)(C)NC(=O)c1cc(NC(=O)Cc2cccc(O)c2)ccn1 [Example 3.12b, N-tert-Butyl-4-[[2-(3-hydroxyphenyl)acetyl]amino]pyridine-2-carboxamide] | 143% | 340 nM |
| CC(C)(C)NC(=O)c1cc(NC(=O)Cc2ccccc2O)ccn1 [Example 1, N-tert-Butyl-4-[[2-(2-hydroxyphenyl)acetyl]amino]pyridine-2-carboxamide] | 203% | 210 nM |
| C#CC(C)(C)NC(=O)c1cc(NC(=O)Cc2ccccc2C(F)(F)F)ccn1 [Example 5.38, N-(1,1-Dimethylprop-2-ynyl)-4-[[2-[2-(trifluoromethyl)phenyl]acetyl]amino]pyridine-2-carboxamide] | 231% | 150 nM |
| O=C(Cc1cc(Cl)ccc1O)Nc1ccnc(C(=O)N[C@H]2CCCC[C@@H]2O)c1 [Example 31.3, 4-[2-(5-Chloro-2-hydroxyphenyl)acetamido]-N-[(1s,2s)-2-hydroxycyclohexyl] pyridine-2-carboxamide] | 205% | 210 nM |
| N#CC1(NC(=O)c2cc(NC(=O)Cc3cccc(Cl)c3)ccn2)CC1 [Example 23.1, 4-[[2-(3-Chlorophenyl)acetyl]amino]-N-(1-cyanocyclopropyl)pyridine-2-carboxamide] | 150% | – |
| CC(C)C(C)(C#N)NC(=O)c1cc(NC(=O)Cc2cc(Cl)ccc2O)ccn1 (stereo not shown) [Example 37, 4-[[2-(5-Chloro-2-hydroxy-phenyl)acetyl]amino]-N-(1-cyano-1,2-dimethyl-propyl)pyridine-2-carboxamide] | 352% | 120 nM |
| N#CC1(NC(=O)c2cccc(NC(=O)Cc3cc(Cl)ccc3O)c2)CCOC1 (stereo not shown) [Example 71, 3-[[2-(5-Chloro-2-hydroxy-phenyl)acetyl]amino]-N-(3-cyanotetrahydrofuran-3-yl)benzamide] | 162% | – |
| COCCC(C)(C)NC(=O)c1cc(NC(=O)Cc2cc(Cl)ccc2O)ccn1 [Example 1.4, 4-[[2-(5-Chloro-2-hydroxy-phenyl)acetyl]amino]-N-(3-methoxy-1,1-dimethyl-propyl)pyridine-2-carboxamide] | 195% | 400 nM |
| C#CC(C)(C)NC(=O)c1cc(NC(=O)Cc2ccc(C(F)(F)F)cc2)ccn1 [Example 5.35, N-(1,1-Dimethylprop-2-ynyl)-4-[[2-[4-(trifluoromethyl)phenyl]acetyl]amino]pyridine-2-carboxamide] | 106% | 180 nM |
| CC(C)(C)NC(=O)c1cc(NC(=O)Cc2cc(C#N)ccc2O)ccn1 [Example 6, N-tert-Butyl-4-[[2-(5-cyano-2-hydroxy-phenyl)acetyl]amino]pyridine-2-carboxamide] | 162% | 1140 nM |
| CC(C)(C)NC(=O)c1cc(NC(=O)Cc2cc(C(F)(F)F)ccc2O)ccn1 [Example 3.5b, N-tert-Butyl-4-[[2-[2-hydroxy-5-(trifluoromethyl)phenyl]acetyl]amino]pyridine-2-carboxamide] | 150% | 200 nM |
| CC(C)(C)NC(=O)c1cc(NC(=O)Cc2cc(F)ccc2O)ccn1 [Example 20, N-tert-Butyl-4-[[2-(5-fluoro-2-hydroxy-phenyl)acetyl]amino]pyridine-2-carboxamide] | 111% | 220 nM |
| O=C(O)CCCCCCCCCCCNC(=O)c1cc(NC(=O)Cc2cc(Cl)ccc2O)ccn1 [Example 32.1, 12-[[4-[[2-(5-Chloro-2-hydroxy-phenyl)acetyl]amino]pyridine-2-carbonyl]amino]dodecanoic acid] | 246% | – |
| CC(C)NC(=O)c1cc(NC(=O)Cc2cc(F)ccc2O)ccn1 [Example 81.2, 4-[[2-(5-Fluoro-2-hydroxy-phenyl)acetyl]amino]-N-isopropyl-pyridine-2-carboxamide] | 103% | 420 nM |
| CC(C)(C)NC(=O)c1cc(NC(=O)Cc2ccc3c(c2)OCCO3)ccn1 [Compound 5.32] | 285% | – |
| CC(C)(C)NC(=O)c1cc(NC(=O)Cc2c(O)c(Br)cc(F)c2Br)ccn1 [Example 3.7a, N-tert-butyl-4-[2-(2,5-dibromo-3-fluoro-6-hydroxyphenyl)acetamido]pyridine-2-carboxamide] | 135% | 280 nM |
| CC(C)(C)C1CCC(NC(=O)c2cc(NC(=O)Cc3cc(Cl)ccc3O)ccn2)CC1 (stereo not shown) [Example 39, N-(4-tert-Butylcyclohexyl)-4-[[2-(5-chloro-2-hydroxy-phenyl)acetyl]amino]pyridine-2-carboxamide] | 262% | 60 nM |
| CC(C)(C)NC(=O)c1cc(NC(=O)Cc2cc(Cl)ccc2O)ccn1 [Example 3, N-tert-Butyl-4-[[2-(5-chloro-2-hydroxy-phenyl)acetyl]amino]pyridine-2-carboxamide] | 287% | 110 nM |

| SMILES | % Potentiation @ 3.33 μM Avg | EC50 |
| --- | --- | --- |
| CC(C)Cc1cc(C(=O)Nc2ccnc(C(=O)NC(C)(C)C#N)c2)on1 [Example 83.9, N-[2-[(1-Cyano-1-methyl-ethyl)carbamoyl]-4-pyridyl]-3-isobutyl-isoxazole-5-carboxamide] | 18% | – |
| Nc1cccc(CNC(=O)c2cc(NC(=O)Cc3cc(Cl)ccc3O)ccn2)n1 [Example 32, N-[(6-Amino-2-pyridyl)methyl]-4-[[2-(5-chloro-2-hydroxy-phenyl)acetyl]amino]pyridine-2-carboxamide] | 171% | – |
| CC(C)(C)NC(=O)c1cccc(NC(=O)Cc2cc(Cl)ccc2O)c1 [Example 2, N-tert-Butyl-3-[[2-(5-chloro-2-hydroxy-phenyl)acetyl]amino]benzamide] | 262% | 270 nM |
| O=C(Cc1ccc2ncccc2c1)Nc1ccnc(C(=O)NC2CCOCC2)c1 [Example 63, 4-[[2-(6-Quinolyl)acetyl]amino]-N-tetrahydropyran-4-yl-pyridine-2-carboxamide] | 37% | – |
| O=C(Cc1cc(Cl)ccc1O)Nc1ccnc(C(=O)Nc2ccccc2)c1 [Example 35.16, 4-[[2-(5-Chloro-2-hydroxy-phenyl)acetyl]amino]-N-phenyl-pyridine-2-carboxamide] | 85% | 330 nM |
| CC(C)(C#N)NC(=O)c1cc(NC(=O)CC2CCC(F)(F)CC2)ccn1 [Example 83.10, N-(1-Cyano-1-methyl-ethyl)-4-[[2-(4,4-difluorocyclohexyl)acetyl]amino]pyridine-2-carboxamide] | 62% | – |
| O=C(Cc1cc(Cl)ccc1O)Nc1cccc(C(=O)NC23CC4CC(CC(C4)C2)C3)c1 [Example 1.2, N-(1-Adamantyl)-3-[[2-(5-chloro-2-hydroxy-phenyl)acetyl]amino]benzamide] | 170% | 540 nM |
| C#CC(C)(C)NC(=O)c1cccc(NC(=O)Cc2cc(Cl)ccc2O)c1 [Example 74, 3-[[2-(5-Chloro-2-hydroxy-phenyl)acetyl]amino]-N-(1,1-dimethylprop-2-ynyl)benzamide] | 337% | 180 nM |
| O=C(Cc1cc(Cl)ccc1O)Nc1ccnc(C(=O)NCc2ccccc2)c1 [Example 35.15, N-Benzyl-4-[[2-(5-chloro-2-hydroxy-phenyl)acetyl]amino]pyridine-2-carboxamide] | 158% | 150 nM |
| CC(C)(C)NCc1cc(O)c(CC(=O)Nc2ccnc(C(=O)NC(C)(C)C)c2)cc1Cl [Example 27.1, N-tert-Butyl-4-[[2-[4-[(tert-butylamino)methyl]-5-chloro-2-hydroxy-phenyl]acetyl]amino]pyridine-2-carboxamide] | 52% | – |
| CC(C)(C)NC(=O)c1cc(NC(=O)Cc2cc(F)ccc2Cl)ccn1 [Example 40.1, N-tert-Butyl-4-[[2-(2-chloro-5-fluoro-phenyl)acetyl]amino] pyridine-2-carboxamide] | 91% | 870 nM |
| C[C@H](NC(=O)Nc1ccnc(C(=O)NC(C)(C)C)c1)c1ccccc1 [Example 64.4, N-tert-Butyl-4-[[(1S)-1-phenylethyl]carbamoylamino]pyridine-2-carboxamide] | 2% | – |
| CC(C)(NC(=O)c1cc(NC(=O)Cc2cc(Cl)ccc2O)ccn1)c1ccccc1 [Example 94, 4-[[2-(5-Chloro-2-hydroxy-phenyl)acetyl]amino]-N-(1-methyl-1-phenyl-ethyl) pyridine-2-carboxamide] | 516% | 340 nM |
| CC(C)(C)NC(=O)c1cc(NC(=O)[C@@H]2CCc3ccccc32)ccn1 (single isomer, unassigned) [Example 21a, N-tert-Butyl-4-[[(1R)-indane-1-carbonyl]amino]pyridine-2-carboxamide or N-tert-Butyl-4-[[(1S)-indane-1-carbonyl]amino]pyridine-2-carboxamide] | 99% | 1570 nM |
| O=C(Cc1ccccc1F)Nc1ccnc(C(=O)NC23CCC(F)(C2)C3)c1 [Example 60, N-(4-Fluoro-1-bicyclo[2.1.1]hexanyl)-4-[[2-(2-fluorophenyl)acetyl]amino]pyridine-2-carboxamide] | 126% | 350 nM |
| C#CC(C)(C)NC(=O)c1cc(NC(=O)Cc2ccncc2Cl)ccn1 [Example 22.3, 4-[[2-(3-Chloro-4-pyridyl)acetyl]amino]-N-(1,1-dimethylprop-2-ynyl)pyridine-2-carboxamide] | 132% | – |
| CC(C)(C)NC(=O)c1cc(NC(=O)Cc2ccc(F)c(F)c2)ccn1 [Example 23.6, N-tert-Butyl-4-[[2-(3,4-difluorophenyl)acetyl]amino]pyridine-2-carboxamide] | 108% | – |

From patent US20200361871A1 (Enterprise Therapeutics Ltd., priority 2018, published 2020)
